# Measured values published in the supplement of paper PMC13380429.
# How the values were obtained:
# Details in all cases: 72 h
# [1] = tested on: Caco-2; assay: cell viability relative to DMSO; higher = less toxic
# [2] = tested on: Calu-3; assay: as above
# [3] = tested on: HepG2; assay: as above
# [4] = tested on: U2OS; assay: as above
# [5] = tested on: Vero E6; assay: as above
# [6] = tested on: Caco-2; assay: relative viability EC50 (midpoint between 100% and the lowest measured viability); higher = less toxic
# [7] = tested on: Calu-3; assay: as above
# [8] = tested on: HepG2; assay: as above
# [9] = tested on: U2OS; assay: as above
# [10] = tested on: Vero E6; assay: as above
# [11] = tested on: Caco-2; assay: drug sensitivity score (DSS) for viability; higher = more toxic; extreme values may be limits of the assay
# [12] = tested on: Calu-3; assay: as above
# [13] = tested on: HepG2; assay: as above
# [14] = tested on: U2OS; assay: as above
# [15] = tested on: Vero E6; assay: as above
Structure (SMILES),cell viability ([1]; 1 nM),cell viability ([1]; 10 nM),cell viability ([1]; 100 nM),cell viability ([1]; 1000 nM),cell viability ([1]; 10000 nM),cell viability ([2]; 1 nM),cell viability ([2]; 10 nM),cell viability ([2]; 100 nM),cell viability ([2]; 1000 nM),cell viability ([2]; 10000 nM),cell viability ([3]; 1 nM),cell viability ([3]; 10 nM),cell viability ([3]; 100 nM),cell viability ([3]; 1000 nM),cell viability ([3]; 10000 nM),cell viability ([4]; 1 nM),cell viability ([4]; 10 nM),cell viability ([4]; 100 nM),cell viability ([4]; 1000 nM),cell viability ([4]; 10000 nM),cell viability ([5]; 1 nM),cell viability ([5]; 10 nM),cell viability ([5]; 100 nM),cell viability ([5]; 1000 nM),cell viability ([5]; 10000 nM),relative viability EC50 [6],relative viability EC50 [7],relative viability EC50 [8],relative viability EC50 [9],relative viability EC50 [10],drug sensitivity score [11],drug sensitivity score [12],drug sensitivity score [13],drug sensitivity score [14],drug sensitivity score [15]
CCCN1CCO[C@@H]2c3cc(O)ccc3OC[C@H]21,101%,116%,97.8%,109%,102%,102%,110%,95%,105%,90.6%,106%,104%,100%,92%,105%,102%,106%,97.1%,102%,99.7%,99.7%,101%,102%,101%,95.7%,> 10 µM,> 10 µM,> 10 µM,> 10 µM,> 10 µM,0,0,0,0,0
CCNCc1cc(C(C)(C)C)c(O)c(C(C)(C)C)c1,103%,97.8%,96.1%,98.2%,99.8%,–,–,–,–,–,99.1%,99.7%,99.6%,98.4%,105%,102%,103%,98.5%,101%,96.5%,101%,104%,96.7%,97.2%,105%,> 10 µM,–,> 10 µM,> 10 µM,> 10 µM,0,–,0,0,0
CC[C@H](C)n1cc(C)c2c(C(=O)NCc3c(C)cc(C)[nH]c3=O)cc(-c3ccc(N4CCNCC4)nc3)cc21,93.9%,101%,102%,102%,95.1%,96.3%,102%,107%,102%,90.9%,98.7%,97.7%,99.1%,99%,87.9%,97.4%,98.2%,98.8%,101%,91.7%,92.3%,99.2%,91.6%,88.2%,98.7%,> 10 µM,> 10 µM,> 10 µM,> 10 µM,> 10 µM,0,0,0.1,0,0
CN1C(=O)N(c2cc(Cl)cc(Cl)c2)C(=O)[C@]12CN(Cc1cc(C(=O)O)cs1)C[C@H]2c1ccc(C#N)cc1,109%,94.8%,100%,103%,93.7%,–,–,–,–,–,101%,112%,109%,98.1%,104%,104%,97.8%,101%,103%,100%,98.3%,101%,95.5%,96.6%,105%,> 10 µM,–,> 10 µM,> 10 µM,> 10 µM,0,–,0,0,0
Cc1sc(N)c(C(=O)c2cccc(C(F)(F)F)c2)c1C,97.7%,96.6%,97%,95.6%,90.6%,100%,91.9%,99.2%,100%,109%,92.3%,102%,93.2%,96.7%,92.7%,97.9%,95.9%,99.9%,94.9%,102%,98.1%,96.9%,98%,99.3%,100%,> 10 µM,> 10 µM,> 10 µM,> 10 µM,> 10 µM,0,0,0,0,0
Fc1ccc(CN2CCC(Nc3ccc(C(F)(F)F)nn3)CC2)cc1F,100%,95.8%,101%,94.7%,94.1%,112%,97.6%,86.9%,91.7%,107%,90.1%,108%,91.2%,88.1%,93.4%,101%,95.5%,95.6%,102%,101%,90.3%,101%,97.4%,98.5%,104%,> 10 µM,> 10 µM,> 10 µM,> 10 µM,> 10 µM,0,0,0.8,0,0
